Data published in paper PMC7782499, “Progerinin, an optimized progerin-lamin A binding inhibitor, ameliorates premature senescence phenotypes of Hutchinson-Gilford progeria syndrome” (Communications Biology, 2021).
Values joined by “and” are separate entries in the source; they are usually repeats but may differ in a detail not shown here. Identical values can stand only once.

Tested on: Lmna G609G/+ mouse
Assay: Body weight of Lmna G609G/+ mice
Type: in vivo
Settings: oral administration, relative body weight; for Lmna G609G/+ body weight, Ave: group average; for Lmna G609G/+ body weight: individual mouse
Description: Fig. 3 In vivo favorable effect of SLC-D011. A Gross morphology of Lmna^G609G/G609G mice (10 weeks old) was ameliorated after injection with SLC-D011. At the same age, the experimental group (D011) of mice were larger than vehicle-injected control (Con) subjects regardless of gender. B, C SLC-D011 increases body weight B and extends life span C of Lmna^G609G/G609G progeria model mouse (Con: n = 8; SLC-D011: n = 8). Compared with 14.8 weeks of average (ave) life span with maximum (max) life span of 15.5 weeks, 20 mg/kg of intraperitoneal (i.p) injection (twice a week) of SLC-D011 could extend the life span upto 19 weeks (max = 21 weeks). Lmna^G609G/G609G mice were injected with SLC-D011 from age of 5-week old, *p < 0.05. D Gross morphology of SLC-D011 injected Lmna^G609G/+ mouse. […] E SLC-D011 increases body weights of Lmna^G609G/+ mice (Con: n = 10; SLC-D011: n = 11), *p < 0.05. F Favorable effect of SLC-D011 on life span of Lmna^G609G/+ mice. Compared with vehicle-injected control group (ave = 46.7 weeks and max = 48 weeks), SLC-D011 treatment obviously extended the average life span to 63 weeks (max = 64 weeks). The injection was started from 32 weeks old, **p < 0.001. “Con” means vehicle (a solvent composed of DMSO and PBS)-injected mouse group. TEXT PRINTED IN THE PICTURE: (C) D011: Kaplan-Meier survival curve in Lmna^G609G/G609G: Ave=19; Kaplan-Meier survival curve in Lmna^G609G/G609G: Max=21 | (F) D011: Kaplan-Meier survival curve in Lmna^G609G/+: Ave=63; Kaplan-Meier survival curve in Lmna^G609G/+: Max=64 DOUBTS OF THE COPYIST ABOUT THIS PICTURE: Panels C and F: the Ave/Max labels are not printed with a group name. They are assigned to D011 (solid curve) or Con (dashed curve) only by their position beside the curves. / Panel C Ave=14.8, Max=15.5 and panel F Ave=46.7, Max=48 stand beside the dashed Con curve. They are left out because Con is the control group, not a substance. / No unit is printed with the Ave/Max values. Only the axis reads Age (weeks).
Animal experiments were performed in a facility certified by the Association for Assessment and Accreditation of Laboratory Animal Care in compliance with animal policies approved by Pusan National University. The mouse work was performed under the study protocol PNU-2019-2181, as approved by the Institutional Animal Care and Use Committee. Lmna^G609G/609G mice were generated by timed mating of heterozygous Lmna^G609G/+ provided by Carlos López-Otín (Universidad de Oviedo, Asturias, Oviedo, Spain). SLC-D011 was mixed with dimethyl sulfoxide (DMSO) and phosphate-buffered saline (PBS). It was then intraperitoneally injected into mice (20 mg/kg twice per week from 5-week-old). SLC-D011 and lonafarnib were orally administrated to mice daily at a concentration of 10 mg/ml in monoolein-based solution. Lonafarnib was generously provided by Merck, the Progeria Research Foundation (PRF) and the PRF Lonafarnib Pre-clinical Drug Supply Program. Control mice were treated with monoolein-based solution alone in the same way. Lmna^G609G/609G mice were treated with clear chemical solution throughout the life span, starting from 5 weeks of age. Lmna^G609G/+ mice were treated via intraperitoneal and oral administrations, starting from 32 weeks of age.
Fig. S10. Or al administration of SLC-D011 suppresses premature aging features of LmnaG609G/+ mi c e . A.
Gross morphology of SLC-D011 treated Lmna G609G/+ mice at 36 weeks old. B. Oral administration of SLC-
D011 increases body weight s of LmnaG609G/+ mi c e (untreated: n=11; SLC-D011: n=12), * p<0.05. C. […]
intensity of H3K9me3 levels in lung, liver, and kidney tissues of age-matched Lmn a +/+ mouse, untreated
LamnG609G/+ mouse and two progerinin- treated LmnaG609G/+ mice (n = 2 independent experiments; one
Student’s t -test), **p < 0.001,*p< 0.05, N.S: not significant .AU, arbitrary units.
Fig. S12. […] A. SLC-D011, compar ed to lonafarnib, reduces […]

NC(=O)N1CCC(CC(=O)N2CCC([C@H]3c4ncc(Br)cc4CCc4cc(Cl)cc(Br)c43)CC2)CC1 [lonafarnib, reference compound]
Lmna G609G/+ body weight, Ave (week 36): 1 | Lmna G609G/+ body weight (week 36): 1 | Lmna G609G/+ body weight, Ave (week 38): 0.9406 | Lmna G609G/+ body weight (week 38): 0.9091 and 0.9 and 0.96 and 0.95 and 0.913 and 0.9565 | Lmna G609G/+ body weight, Ave (week 40): 0.9202 | Lmna G609G/+ body weight (week 40): 0.8636 and 0.85 and 0.92 and 0.9 and 0.96 and 0.913 and 0.9565 and 0.95 and 0.9091 | Lmna G609G/+ body weight, Ave (week 42): 0.88 | Lmna G609G/+ body weight (week 42): 0.8636 and 0.8 and 0.84 and 0.85 and 0.92 and 0.913 and 0.88 and 0.9091 | Lmna G609G/+ body weight, Ave (week 44): 0.8157 | Lmna G609G/+ body weight (week 44): 0.7727 and 0.7 and 0.8 and 0.88 and 0.7273 and 0.8182 and 0.85 | Lmna G609G/+ body weight, Ave (week 46): 0.7411 | Lmna G609G/+ body weight (week 46): 0.7273 and 0.65 and 0.72 and 0.75 and 0.76 and 0.7 and 0.8182 and 0.8 | Lmna G609G/+ body weight, Ave (week 48): 0.6808 | Lmna G609G/+ body weight (week 48): 0.6818 and 0.6 and 0.64 and 0.75 and 0.68 and 0.7 and 0.7273 and 0.72 | Lmna G609G/+ body weight, Ave (week 50): 0.6132 | Lmna G609G/+ body weight (week 50): 0.5909 and 0.55 and 0.6 and 0.7 and 0.64 and 0.5 and 0.6957 and 0.65 and 0.6818 | Lmna G609G/+ body weight, Ave (week 52): 0.4605 | Lmna G609G/+ body weight (week 52): 0.4545 and 0 and 0.4 and 0.55 and 0.48 and 0.5217 and 0.6957 and 0.5 and 0.44 | Lmna G609G/+ body weight, Ave (week 54): 0.1559 | Lmna G609G/+ body weight (week 54): 0.4545 and 0 and 0.44 and 0.5217
